In US9738634B2, “Heterocyclic amide compound and herbicide” (SYNGENTA PARTICIPATIONS AG, priority 2013, dated 2017):

Legend:
Format in all cases: in vivo
soybean = test: Test Example 3: soil treatment, effect on crop; d: soybean; conditions: soil treatment, treatment dosage 320 g/ha
Outline: (§1)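 Crop and weed responses were judged three weeks after a uniform surface spray of the water-diluted emulsion at the given g/ha rate. Seeds sat beneath about 1.5 cm of sterilized diluvial soil, and boxes stood in a greenhouse at 25 to 30° C.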

oval-leafed pondweed [1] = test: Test Example 2: weedkilling efficacy, growth period weed treatment in the submerged state; C: oval-leafed pondweed; conditions: treatment dosage 320 g/ha
Outline: (§2)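 Barnyard grass, bulrush and oval-leafed pondweed sown in alluvial soil under 4 cm flooding, greenhouse 25 to 30° C. At 1-2 leaf stage, water-diluted emulsion applied to the water surface at stated g/ha dosages; effects scored 3 weeks later.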

birds-eye speedwell = test: Test Example 3: weedkilling efficacy through soil treatment; p: birds-eye speedwell; conditions: soil treatment, treatment dosage 320 g/ha
Outline: as §1

fig-leafed goosefoot = test: Test Example 3: weedkilling efficacy through soil treatment; M: fig-leafed goosefoot; conditions: soil treatment, treatment dosage 320 g/ha
Outline: as §1

barnyard grass [2] = test: Test Example 2: weedkilling efficacy, growth period weed treatment in the submerged state; A: barnyard grass; conditions: treatment dosage 320 g/ha
Outline: as §2

beet = test: Test Example 3: soil treatment, effect on crop; f: beet; conditions: soil treatment, treatment dosage 320 g/ha
Outline: as §1

wild oat = test: Test Example 3: weedkilling efficacy through soil treatment; G: wild oat; conditions: soil treatment, treatment dosage 320 g/ha
Outline: as §1

oval-leafed pondweed [3] = test: Test Example 1: weedkilling efficacy, preemergent weed treatment in the submerged state; C: oval-leafed pondweed; conditions: treatment dosage 320 g/ha
Outline: (§3)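 Visual scores against set criteria were taken 3 weeks after treatment. Compounds, as diluted emulsions at specified g/ha, went onto the water surface of 4 cm-flooded alluvial soil pots on the day weeds were sown and 2.5-leaf rice was transplanted; greenhouse held 25–30 °C.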

chickweed = test: Test Example 3: weedkilling efficacy through soil treatment; N: chickweed; conditions: soil treatment, treatment dosage 320 g/ha
Outline: as §1

black-grass = test: Test Example 3: weedkilling efficacy through soil treatment; H: black-grass; conditions: soil treatment, treatment dosage 320 g/ha
Outline: as §1

Indian mallow = test: Test Example 3: weedkilling efficacy through soil treatment; K: Indian mallow; conditions: soil treatment, treatment dosage 320 g/ha
Outline: as §1

common wind-grass = test: Test Example 3: weedkilling efficacy through soil treatment; J: common wind-grass; conditions: soil treatment, treatment dosage 320 g/ha
Outline: as §1

directly sown rice = test: Test Example 3: soil treatment, effect on crop; b: directly sown rice; conditions: soil treatment, treatment dosage 320 g/ha
Outline: as §1

rapeseed = test: Test Example 3: soil treatment, effect on crop; g: rapeseed; conditions: soil treatment, treatment dosage 320 g/ha
Outline: as §1

redroot pigweed = test: Test Example 3: weedkilling efficacy through soil treatment; L: redroot pigweed; conditions: soil treatment, treatment dosage 320 g/ha
Outline: as §1

transplanted rice = test: Test Example 1: preemergent weed treatment in the submerged state, effect on crop; a: transplanted rice; conditions: treatment dosage 320 g/ha
Outline: as §3

green foxtail = test: Test Example 3: weedkilling efficacy through soil treatment; E: green foxtail; conditions: soil treatment, treatment dosage 320 g/ha
Outline: as §1

corn = test: Test Example 3: soil treatment, effect on crop; c: corn; conditions: soil treatment, treatment dosage 320 g/ha
Outline: as §1

Italian ryegrass = test: Test Example 3: weedkilling efficacy through soil treatment; I: Italian ryegrass; conditions: soil treatment, treatment dosage 320 g/ha
Outline: as §1

wheat = test: Test Example 3: soil treatment, effect on crop; e: wheat; conditions: soil treatment, treatment dosage 320 g/ha
Outline: as §1

bulrush [4] = test: Test Example 1: weedkilling efficacy, preemergent weed treatment in the submerged state; B: bulrush; conditions: treatment dosage 320 g/ha
Outline: as §3

crabgrass = test: Test Example 3: weedkilling efficacy through soil treatment; D: crabgrass; conditions: soil treatment, treatment dosage 320 g/ha
Outline: as §1

catchweed = test: Test Example 3: weedkilling efficacy through soil treatment; O: catchweed; conditions: soil treatment, treatment dosage 320 g/ha
Outline: as §1

bulrush [5] = test: Test Example 2: weedkilling efficacy, growth period weed treatment in the submerged state; B: bulrush; conditions: treatment dosage 320 g/ha
Outline: as §2

barnyard grass [6] = test: Test Example 3: weedkilling efficacy through soil treatment; F: barnyard grass; conditions: soil treatment, treatment dosage 320 g/ha
Outline: as §1

barnyard grass [7] = test: Test Example 1: weedkilling efficacy, preemergent weed treatment in the submerged state; A: barnyard grass; conditions: treatment dosage 320 g/ha
Outline: as §3

Structure (SMILES) | d: soybean, effect on crop grade (soybean) | C (oval-leafed pondweed) weedkilling efficacy grade (oval-leafed pondweed [1]) | P: birds-eye speedwell, weedkilling efficacy grade (birds-eye speedwell) | M: fig-leafed goosefoot, weedkilling efficacy grade (fig-leafed goosefoot) | A (barnyard grass) weedkilling efficacy grade (barnyard grass [2]) | f: beet, effect on crop grade (beet) | G: wild oat, weedkilling efficacy grade (wild oat) | C: oval-leafed pondweed, weed kill grade (oval-leafed pondweed [3]) | N: chickweed, weedkilling efficacy grade (chickweed) | H: black-grass, weedkilling efficacy grade (black-grass) | K: Indian mallow, weedkilling efficacy grade (Indian mallow) | J: common wind-grass, weedkilling efficacy grade (common wind-grass) | b: directly sown rice, effect on crop grade (directly sown rice) | g: rapeseed, effect on crop grade (rapeseed) | L: redroot pigweed, weedkilling efficacy grade (redroot pigweed) | a: transplanted rice, effect on crop grade (transplanted rice) | E: green foxtail, weedkilling efficacy grade (green foxtail) | c: corn, effect on crop grade (corn) | I: Italian ryegrass, weedkilling efficacy grade (Italian ryegrass) | e: wheat, effect on crop grade (wheat) | also measured
CCc1cc(F)nc(NC(=O)C(C)(C)N2COCN(c3ccccc3)C2=O)c1 [A-2-21] | 3 (weed kill ratio 40% or more, less than 70%) | 5 (weed kill ratio 90% or more, (practically complete withering)) | 5 (weed kill ratio 90% or more, (practically complete withering)) | 5 (weed kill ratio 90% or more, (practically complete withering)) | 5 (weed kill ratio 90% or more, (practically complete withering)) | 0 (weed kill ratio 5% or less (practically no effect)) | 5 (weed kill ratio 90% or more, (practically complete withering)) | 5 (weed kill ratio 90% or more, (practically complete withering)) | 4 (weed kill ratio 70% or more, less than 90%) | 5 (weed kill ratio 90% or more, (practically complete withering)) | 2 (weed kill ratio 20% or more, less than 40%) | 5 (weed kill ratio 90% or more, (practically complete withering)) | 5 (weed kill ratio 90% or more, (practically complete withering)) | 4 (weed kill ratio 70% or more, less than 90%) | 4 (weed kill ratio 70% or more, less than 90%) | 5 (weed kill ratio 90% or more, (practically complete withering)) | 5 (weed kill ratio 90% or more, (practically complete withering)) | 0 (weed kill ratio 5% or less (practically no effect)) | 5 (weed kill ratio 90% or more, (practically complete withering)) | 1 (weed kill ratio 5% or more, less than 20%) | B: bulrush, weed kill grade (bulrush [4]): 5 (weed kill ratio 90% or more, (practically complete withering)); D: crabgrass, weedkilling efficacy grade (crabgrass): 5 (weed kill ratio 90% or more, (practically complete withering)); O: catchweed, weedkilling efficacy grade (catchweed): 4 (weed kill ratio 70% or more, less than 90%); B (bulrush) weedkilling efficacy grade (bulrush [5]): 5 (weed kill ratio 90% or more, (practically complete withering)); F: barnyard grass, weedkilling efficacy grade (barnyard grass [6]): 5 (weed kill ratio 90% or more, (practically complete withering)); A: barnyard grass, weed kill grade (barnyard grass [7]): 5 (weed kill ratio 90% or more, (practically complete withering))
COc1cc(F)nc(NC(=O)C(C)(C)N2COCN(c3ccccc3)C2=O)c1 [A-2-23] | 0 (weed kill ratio 5% or less (practically no effect)) | 5 (weed kill ratio 90% or more, (practically complete withering)) | 5 (weed kill ratio 90% or more, (practically complete withering)) | 4 (weed kill ratio 70% or more, less than 90%) | 5 (weed kill ratio 90% or more, (practically complete withering)) | 3 (weed kill ratio 40% or more, less than 70%) | 4 (weed kill ratio 70% or more, less than 90%) | 5 (weed kill ratio 90% or more, (practically complete withering)) | 4 (weed kill ratio 70% or more, less than 90%) | 5 (weed kill ratio 90% or more, (practically complete withering)) | 0 (weed kill ratio 5% or less (practically no effect)) | 5 (weed kill ratio 90% or more, (practically complete withering)) | 5 (weed kill ratio 90% or more, (practically complete withering)) | 4 (weed kill ratio 70% or more, less than 90%) | 0 (weed kill ratio 5% or less (practically no effect)) | 3 (weed kill ratio 40% or more, less than 70%) | 5 (weed kill ratio 90% or more, (practically complete withering)) | 0 (weed kill ratio 5% or less (practically no effect)) | 5 (weed kill ratio 90% or more, (practically complete withering)) | 0 (weed kill ratio 5% or less (practically no effect)) | B: bulrush, weed kill grade (bulrush [4]): 5 (weed kill ratio 90% or more, (practically complete withering)); D: crabgrass, weedkilling efficacy grade (crabgrass): 5 (weed kill ratio 90% or more, (practically complete withering)); O: catchweed, weedkilling efficacy grade (catchweed): 4 (weed kill ratio 70% or more, less than 90%); B (bulrush) weedkilling efficacy grade (bulrush [5]): 5 (weed kill ratio 90% or more, (practically complete withering)); F: barnyard grass, weedkilling efficacy grade (barnyard grass [6]): 5 (weed kill ratio 90% or more, (practically complete withering)); A: barnyard grass, weed kill grade (barnyard grass [7]): 5 (weed kill ratio 90% or more, (practically complete withering))
CC(C)(C(=O)Nc1cc(C2CC2)cc(Cl)n1)N1COCN(c2ccccc2)C1=O [A-2-30] | 0 (weed kill ratio 5% or less (practically no effect)) | 5 (weed kill ratio 90% or more, (practically complete withering)) | 4 (weed kill ratio 70% or more, less than 90%) | 3 (weed kill ratio 40% or more, less than 70%) | 5 (weed kill ratio 90% or more, (practically complete withering)) | 3 (weed kill ratio 40% or more, less than 70%) | 4 (weed kill ratio 70% or more, less than 90%) | 5 (weed kill ratio 90% or more, (practically complete withering)) | 3 (weed kill ratio 40% or more, less than 70%) | 5 (weed kill ratio 90% or more, (practically complete withering)) | 0 (weed kill ratio 5% or less (practically no effect)) | 5 (weed kill ratio 90% or more, (practically complete withering)) | 3 (weed kill ratio 40% or more, less than 70%) | 4 (weed kill ratio 70% or more, less than 90%) | 0 (weed kill ratio 5% or less (practically no effect)) | 1 (weed kill ratio 5% or more, less than 20%) | 5 (weed kill ratio 90% or more, (practically complete withering)) | 0 (weed kill ratio 5% or less (practically no effect)) | 5 (weed kill ratio 90% or more, (practically complete withering)) | 1 (weed kill ratio 5% or more, less than 20%) | B: bulrush, weed kill grade (bulrush [4]): 5 (weed kill ratio 90% or more, (practically complete withering)); D: crabgrass, weedkilling efficacy grade (crabgrass): 5 (weed kill ratio 90% or more, (practically complete withering)); O: catchweed, weedkilling efficacy grade (catchweed): 0 (weed kill ratio 5% or less (practically no effect)); B (bulrush) weedkilling efficacy grade (bulrush [5]): 5 (weed kill ratio 90% or more, (practically complete withering)); F: barnyard grass, weedkilling efficacy grade (barnyard grass [6]): 5 (weed kill ratio 90% or more, (practically complete withering)); A: barnyard grass, weed kill grade (barnyard grass [7]): 5 (weed kill ratio 90% or more, (practically complete withering))
